Results on four molecules are retold here after patent US5719152A, “Tricyclic quinoxalinedione derivatives” (Sumitomo Pharmaceuticals Co., Ltd., priority 1993, dated 1998).

Experiment [1] relates to strychnine-insensitive glycine modulatory site of NMDA (N-methyl D-aspartate) receptors. To be noted: 0.1 mM; rat brain synaptic membrane preparation.
Description: The activities of the compounds were measured by [^3 H] DCKA and [^3 H] glycine binding inhibition studies as illustrated below.
[^3 H] glycine binding studies
A crude rat brain synaptic membrane preparation was washed three times by centrifugation at 50,000×g for 30 min with 50 mM tris acetate (pH 7.4). The pellets obtained were suspended in 0.23M sucrose solution and stored at -80° C. For binding studies, the frozen suspension was thawed, treated with 0.08% triton X-100 at 2° C. for 10 min, and washed twice by the centrifugation as mentioned above. The synaptic membrane thus prepared (ca. 150~200 μg of protein) was incubated with 10 nM [^3 H] glycine (1.11 TBq/mmol) and the test compound (10 ng/mL~0.1 ng/mL) at 2° C. for 10 min in 50 mM tris acetate (pH 7.4). The incubation was terminated by suction filtration using Whatman GF/B glass filter. The radioactivities bound to the membrane on the filter was measured by scintillation counting. Non-specific binding was calculated by the radioactivities measured under the incubations in the presence of 0.1 mM D-serine.
The test system of experiment [2] is NMDA-induced seizure. Description: NMDA-induced seizure model. To be noted: Mus musculus, ip, 0.5 h; mice; test compound intraperitoneal 30 min before NMDA (5 nmol) i.c.v.; ten mice; read-out: ED50, inhibition of NMDA-induced tonic seizures. The format is in vivo. How it is done: The compounds of the present invention attenuated strongly NMDA-induced seizure under systemic administrations in the following in vivo model.
NMDA-induced seizure model
Thirty min later following intraperitoneal administration of the test compound (0.3~30 mg/kg) into each of ten mice tested, NMDA (5 nmol) was administered intracerebroventricularly (i.c.v.). […] The activity of the test compound may be shown by the ED50 value.

Consider `O=C1C[C@@H]2OCC=C3CN4CC[C@]56c7ccccc7N1[C@H]5[C@H]2[C@H]3C[C@H]46` [strychnine], for which the “inhibition of [3H] glycine binding” value in experiment [1] is reported as “not inhibited”.
As usually defined, the ED50 is the midpoint of the dose-response relation. As to `Cl.NCc1ccc(NC(=O)C[C@@H]2CCc3cc(Cl)cc4[nH]c(=O)c(=O)n2c34)c(CC(=O)O)c1` [Example 11, (S)-9-Chloro-5-[p-aminomethyl-o-(carboxymethyl)phenylcarbamoylmethyl]-6,7-dihydro-1H, 5H-pyrido[1,2,3-de]quinoxaline-2,3-dione hydrochloride], the ED50 in experiment [2] stood at 3.1 mg/kg.
On to `Cl.NCc1ccc(NC(=O)C[C@@H]2CCc3cc(Cl)cc4[nH]c(=O)c(=O)n2c34)c(OCC(=O)O)c1` [Example 31, (S)-9-Chloro-5-[p-aminomethyl-o-(carboxymethoxy)phenylcarbamoylmethyl]-6,7-dihydro-1H, 5H-pyrido[1,2,3-de]quinoxaline-2,3-dione hydrochloride], for which the ED50 in experiment [2] came to 1 mg/kg.
Take `Cl.NCc1ccc(NC(=O)C[C@@H]2CCc3cc(Br)cc4[nH]c(=O)c(=O)n2c34)c(OCC(=O)O)c1` [Example 35, (S)-9-Bromo-5-[p-aminomethyl-o-(carboxymethoxy)phenylcarbamoylmethyl]6,7-dihydro-1H, 5H-pyrido[1,2,3-de]quinoxaline-2,3-dione hydrochloride]: in experiment [2], the ED50 was found to be 2.1 mg/kg.
